Read-outs that look alike come from different tables or passages of the source.
Tests used:
[1] = Stability of pesticide formulation containing glufosinate-ammonium and C8 ether sulfate at 1:1 weight ratio with test hydrotrope
Source text: Specifically, the pesticide active in the pesticide formulation is glufosinate-ammonium and the adjuvant is C8 ether sulfate.

[2] = Separation of the formulations on standing at room temperature (ternary diagram); format: physicochemical; conditions: for region of stability (blue region) in ternary diagram of percentage of separation: glufosinate ammonium 25.8%, C8 ether sulfate 30.6%, hydrotrope 0-10%, propylene glycol 0-15% w/w
Protocol: A design experiment was performed in which pesticide formulations containing the following were prepared: [table] The formulations were allowed to sit for 24 hours at room temperature and the stability of the formulations was assessed. FIG. 1 illustrates the results of the experiment. FIG. 1 is a ternary diagram showing regions of varying percentages of separation after 24 hours at room temperature of the formulations containing the above-listed components. The numbers associated with the small colored bar in the upper left hand corner of the figure indicate the percentage of separation in the samples. The colors in the bar correspond to the colored regions in the ternary diagram. […] An experiment was performed in which pesticide formulations containing the following were prepared: [table] The formulations were allowed to sit for two hours at room temperature and the stability of the formulations was assessed. FIG. 3 illustrates the results of the experiment. FIG. 3 is a ternary diagram showing regions of varying percentages of separation after two hours at room temperature of the formulations containing the above-listed components.

[3] = Separation of the formulations after one freeze/thaw cycle (ternary diagram); format: physicochemical; conditions: FIG. 2 versus FIG. 4
Protocol: The formulations listed in Example 1 were subjected to a freeze/thaw cycle in which the formulations were frozen and thawed to room temperature. The stability of the formulations was then assessed. FIG. 2 illustrates the results of the assessment. FIG. 2 is a ternary diagram showing regions of varying percentages of separation after one freeze/thaw cycle of the formulations.
A freeze/thaw cycle changes the solubility of some of the components, therefore, by subjecting the formulations to a freeze/thaw cycle, the effect of the solubility change on the stability of the formulations can be assessed.
The formulations listed in Comparative Example 1 were subjected to a freeze/thaw cycle and the stability of the formulations was subsequently assessed. FIG. 4 illustrates the results of the assessment. FIG. 4 is a ternary diagram showing regions of varying percentages of separation after one freeze/thaw cycle of the formulations.

[4] = glufosinate-ammonium and C8 ether sulfate at 1:1 weight ratio
[5] = after 24 hours at room temperature, FIG. 1

COC(C)COC(C)CO (stereo not drawn) [dipropylene glycol monomethyl ether]
stability of the pesticide formulation containing the material as hydrotrope [1]: developed two phases that separated very quickly

CC(O)CO (stereo not drawn) [propylene glycol]
stability of the pesticide formulation containing the material as hydrotrope [1, 4]: developed two phases that separated very quickly

CC(C)c1ccc(S(=O)(=O)[O-])cc1.[Na+] [sodium cumene sulfonate]
stability of the pesticide formulation containing the material as hydrotrope [1, 4]: developed two phases that separated very quickly

CCCCCCCCS(=O)(=O)[O-].[Na+] [sodium octane sulfonate]
effectiveness as a hydrotrope in the formulations [2, 5]: effective as a hydrotrope | region of stability (blue region) in ternary diagram of percentage of separation [2, 5]: large | effectiveness as a hydrotrope compared with sodium xylene sulfonate ([2]; room temperature, FIG. 1 (24 hours) versus FIG. 3 (two hours)): significantly more effective as a hydrotrope than sodium xylene sulfonate | effectiveness as a hydrotrope compared with sodium xylene sulfonate [3]: more effective as a hydrotrope than sodium xylene sulfonate

C4 alcohol+2EO sulfate ester sodium salt
stability of the pesticide formulation containing the material as hydrotrope [1]: developed two phases that separated very quickly

C4 alcohol+4EO sulfate esters sodium salt
stability of the pesticide formulation containing the material as hydrotrope [1]: developed two phases that separated very quickly

C6 alcohol+4EO sodium salt
stability of the pesticide formulation containing the material as hydrotrope [1]: developed two phases that separated very quickly

sodium xylene sulfonate
stability of the pesticide formulation containing the material as hydrotrope [1, 4]: developed two phases that separated very quickly | region of stability (blue region) in ternary diagram of percentage of separation ([2]; after two hours at room temperature, FIG. 3): small
